According to publication PMC7177633, “Effective Cellular Transport of Ortho-Halogenated Sulfonamide Derivatives of Metformin Is Related to Improved Antiproliferative Activity and Apoptosis Induction in MCF-7 Cells” (International Journal of Molecular Sciences, 2020):
Like-named read-outs stand apart in the source and are kept apart here.

Key:
MDA-MB-231 cells = test: Cellular uptake of metformin sulfonamides in MDA-MB-231 cells (HPLC); type: in vitro ADME, human; settings: for transport efficacy (Vmax/Km) in MCF-7 relative to MDA-MB-231: fold lower in MDA-MB-231 than in MCF-7
Protocol: (§1) The uptake of metformin sulfonamides (1–9) in MCF-7 and MDA-MB-231 cells was studied by incubation of the cells with 10−3000 μmol/L of compounds in 250 μL of prewarmed HBSS buffer at 37 °C for 10 min. Subsequently, the cells were then washed three times with 500 μL of ice-cold HBSS and lysed with 250 μL of 0.1-M NaOH. The samples were collected, centrifuged (5 min, 1400 rpm) and the supernatants were analyzed by the HPLC method. The concentration of each compound in the cells was calculated on the basis of the standard curve prepared by spiking known amounts of every compound on the cell layers in 250 μL of 0.1-M NaOH.
(§2) The concentration of the studied sulfonamides (1–9) was assessed using the HPLC system, consisting of an Agilent 1100 binary pump (Agilent Technologies Inc., Wilmington, DE, USA), an 1100 micro-vacuum degasser, an HP 1050 autosampler and an HP 1050 variable wavelength detector (operated at 235 nm). The chromatographic separations of compounds 1–9 were conducted on an Agilent Zorbax SB-C18 analytical column (4.6 mm × 150 mm, 5 μm) using an isocratic elution of water containing 0.1% formic acid (pH ca. 3.0) and acetonitrile containing 0.1% formic acid with a changing ratio, depending on the compound. The analyses were conducted at room temperature (RT). The detailed procedure of chromatographic analysis was described in our previous paper. The studies were conducted in quadruplicates.
(§3) The protein concentrations in representative wells of each plate were assessed using a Bio-Rad protein assay according to the Bradford method (EnVision, PerkinElmer, Inc., Waltham, MA, USA).

MCF-7 cells [1] = test: Annexin V-FITC/PI apoptosis assay, MCF-7; type: cell-based, human; settings: for Early Apoptotic [E+−] / Late Apoptotic [E++] / Living Cells [E−−] / Necrotic Cells [E−+] / Single Cells in Gate B: MCF-7, 24 h
Protocol: MCF-7 and MDA-MB-231 cells were seeded at a density of 5 × 10^4 per well on 24-well plates and incubated for 24 h (37 °C, 5% CO2) to obtain 70 % confluency. Then, the medium (control) or medium with the tested compounds in a volume of 250 μL was added and incubated for another 24 h. The cells were harvested using accutase (Sigma Aldrich, St. Louis, MO, USA) as a detaching reagent, collected to Eppendorf tubes and centrifuged (1100 rpm, 5 min). Afterwards, the cells were resuspended in 1 mL of a cold cell-staining buffer (Biolegend, London UK) and washed twice with a cell-staining buffer. The final step included suspension of the cell pellets in 100 μL of a binding buffer, staining with propidine iodide (PI; 10 μL) and FITC-annexin solutions (AV; 5 μL) (FITC Annexin V Apoptosis Detection Kit with PI (Biolegend, UK)). The samples were incubated for 20 min at room temperature in the dark, followed by an analysis conducted on a cytometer (CytoFlex, blue laser, 480 nm, Beckman-Coulter, Indianapolis, IN, USA). The results were analyzed using Kaluza 2.1 (Beckman-Coulter) software.
Annexin V (−) and PI (−) cells were considered living cells, annexin V (+) and PI (−) as early-apoptotic cells, annexin V (+) and PI (+) as late-apoptotic cells and annexin V (−) and PI (+) as necrotic cells.
The experiments were conducted in triplicates (n = 3). The coefficients of variation for the assay were determined (CV = 0.97–13.62%, depending on the calculated cell population).

MCF-7 cells [2] = test: Cellular uptake of metformin sulfonamides in MCF-7 cells (HPLC); type: in vitro ADME, human; settings: for uptake into MCF-7 cells / uptake in MCF-7 cells relative to metformin: 800 μmol/L; for uptake into MCF-7 cells: 10 min incubation, 37 °C; for uptake in MCF-7 cells relative to metformin: fold higher than parent drug metformin
Protocol: as §1, §2, §3

OCTs = test: Inhibition of [14C]choline uptake in MDA-MB-231 cells (competitive inhibition assay); type: cell-based, human; settings: mean ± SD (n = 3)
Procedure, shortened: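 [14C]choline uptake was measured in MDA-MB-231 or MCF-7 monolayers in HBSS with 25 mM HEPES, pH 7.4. After ice-cold washes the cells were lysed in 0.1 M NaOH and radioactivity was counted by liquid scintillation, with at least three replicates per passage.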

MCF-7 cells [3] = test: Cell viability WST-1 assay, MCF-7; type: cell-based; settings: Homo sapiens, MCF7; WST-1, 24 h, mean ± SD (n = 6–8); read-out: IC50 inhibition of MCF-7 cells' viability
Protocol: The viability of MCF-7 and MDA-MB-231 cells was determined using a colorimetric WST-1 assay (Takara, Takara Bio Europe, Saint-Germain-en-Laye, France). Both cell lines were seeded at a density of 1 × 10^4 per well on 96-well plates and were cultured for 24 h to obtain 70% confluence. The following day, the cells were treated with various concentrations of compounds 1–9 diluted in the cell culture medium ([…]). The cells were incubated with tested compounds or pure medium (control) for 24 h (37 °C, 5% CO2). Afterwards, the cells were washed with 100 μL of culture medium, and then, the reagent dissolved in the medium was added (100 μL). The plates were incubated at the standard condition for 1.5 h, and the absorbance was read at 450 nm using a microplate reader (iMARK, Bio-Rad, Bio-Rad Laboratories Inc., Hercules, CA, USA). […] The results of samples treated with the test compounds were expressed as a percentage of the control samples. The data were presented as mean ± standard deviation (SD), n = 8. IC50 values (the concentration of the tested compound that inhibited cell growth by 50%) were calculated using a concentration-response curve (GraphPad Prism, Software, San Diego, CA, USA).
The concentrations contributing to the 50% of cell growth inhibition (IC50) were calculated using nonlinear regression analysis (fitting the curve to log (concentration) vs. cellular response).

[4] = Eadie-Hofstee analysis, transporter I
[5] = Eadie-Hofstee analysis, transporter I, read-out: Km, transporter I, MDA-MB-231
[6] = Eadie-Hofstee analysis, transporter II
[7] = Eadie-Hofstee analysis, transporter II, read-out: Km, transporter II, MDA-MB-231
[8] = IC50 (Comp. 1 13, Comp. 4 430, Comp. 7 55 μmol/L)
[9] = ½ × IC50 (Comp. 1 6.5, Comp. 4 215, Comp. 7 27.5 μmol/L)
[10] = Eadie-Hofstee analysis, transporter I, read-out: Km, transporter I, MCF-7
[11] = Eadie-Hofstee analysis, transporter II, read-out: Km, transporter II, MCF-7
[12] = MCF-7, 430 uM, representative cytogram Figure 7A
[13] = ½ × IC50 (Comp. 1 6.5, Comp. 4 215, Comp. 7 27.5 μmol/L), listed as Comp. 4
[14] = Michaelis-Menten curve, read-out: Km MCF-7 (Michaelis Menten curves)

SMILES	Vmax, transporter I, MDA-MB-231 (MDA-MB-231 cells; [4])	Km (MDA-MB-231 cells; [5])	Vmax, transporter II, MDA-MB-231 (MDA-MB-231 cells; [6])	Km (MDA-MB-231 cells; [7])	Early Apoptotic [E+−] (MCF-7 cells [1]; [8])	Late Apoptotic [E++] (MCF-7 cells [1]; [8])	Living Cells [E−−] (MCF-7 cells [1]; [8])	Necrotic Cells [E−+] (MCF-7 cells [1]; [8])	Single Cells in Gate B (MCF-7 cells [1]; [8])	Early Apoptotic [E+−] (MCF-7 cells [1]; [9])	Late Apoptotic [E++] (MCF-7 cells [1]; [9])	Living Cells [E−−] (MCF-7 cells [1]; [9])	Necrotic Cells [E−+] (MCF-7 cells [1]; [9])	Single Cells in Gate B (MCF-7 cells [1]; [9])	Vmax, transporter I, MCF-7 (MCF-7 cells [2]; [4])	Km (MCF-7 cells [2]; [10])	Vmax, transporter II, MCF-7 (MCF-7 cells [2]; [6])	Km (MCF-7 cells [2]; [11])	IC50 (OCTs)	IC50 (MCF-7 cells [3])	other results
CN(C)C(=N)N=C(N)NS(=O)(=O)c1ccccc1Cl [Compound 1]	0.0182 ± 0.0026 nmol/min/mg	3.07 ± 0.562 mM	0.0261 ± 0.0040 nmol/min/mg	3.3 ± 0.625 mM	35.79 ± 3.78 %	33.84 ± 3.17 %	29.96 ± 6.41 %	0.41 ± 0.02 %	82.66 ± 0.68 %	27.59 ± 1.03 %	38.93 ± 3.46 %	32.82 ± 4.50 %	0.67 ± 0.08%	77.51 ± 0.92 %	18.53 ± 2.41 nmol/min/mg	6.72 ± 0.982 mM	62.84 ± 21.37 nmol/min/mg	21.1 ± 7.73 mM	2135 ± 14 µM	12.6 ± 1.2 µM	Vmax MDA-231 cells (Michaelis Menten curves) (MDA-MB-231 cells; Michaelis-Menten curve): 0.047 ± 0.065 nmol/min/mg; Km (MDA-MB-231 cells; Michaelis-Menten curve, read-out: Km MDA-231 cells (Michaelis Menten curves)): 8.3 ± 3.27 mM; transport efficacy (Vmax/Km) in MCF-7 relative to MDA-MB-231 (MDA-MB-231 cells): over 370 fold; uptake into MCF-7 cells (MCF-7 cells [2]): 1.79 ± 0.79 nmol/min/mg protein; uptake in MCF-7 cells relative to metformin (MCF-7 cells [2]): approximately 14 fold
CN(C)C(=N)N=C(N)NS(=O)(=O)c1ccccc1Br [Compound 4]	10.27 ± 1.18 nmol/min/mg	5.52 ± 0.748 mM	21.44 ± 4.03 nmol/min/mg	11.6 ± 2.44 mM	22.71 ± 2.11 %	60.16 ± 2.21%	16.84 ± 1.93 %	0.29 ± 0.09 %	83.19 ± 0.40 %	30.69 ± 3.01%	34.69 ± 1.51%	34.17 ± 3.88%	0.45 ± 0.15 %	78.90 ± 0.11 %	0.031 ± 0.002 nmol/min/mg	1.54 ± 0.22 mM	0.153 ± 0.022 nmol/min/mg	8.37 ± 1.43 mM	920 ± 13 µM	430 ± 119 µM	uptake into MDA-MB-231 cells (MDA-MB-231 cells; 800 μmol/L, 10 min incubation, 37 °C): 1.3 ± 0.21 nmol/min/mg protein; uptake in MDA-MB-231 relative to MCF-7 (MDA-MB-231 cells; fold more efficient in MDA-MB-231 than in MCF-7): approximately 130 fold; Early apoptosis (representative cytogram) (MCF-7 cells [1]; [12]): 24.99%; Late apoptosis (representative cytogram) (MCF-7 cells [1]; [12]): 59.54%; Live cells (representative cytogram) (MCF-7 cells [1]; [12]): 15.26%; Necrotic cells (representative cytogram) (MCF-7 cells [1]; [12]): 0.21%; Late Apoptotic [E++] (MCF-7 cells [1]; IC50 (Comp. 1 13, Comp. 4 430, Comp. 7 55 μmol/L), listed as Comp. 4): 60.16 ± 2.21 %; Early Apoptotic [E+−] (MCF-7 cells [1]; [13]): 30.69 ± 3.01 %; Late Apoptotic [E++] (MCF-7 cells [1]; [13]): 34.69 ± 1.51 %; Living Cells [E−−] (MCF-7 cells [1]; [13]): 34.17 ± 3.88 %; Vmax MCF-7 (Michaelis Menten curves) (MCF-7 cells [2]; Michaelis-Menten curve): 0.049 ± 0.02 nmol/min/mg; Km (MCF-7 cells [2]; [14]): 2.47 ± 0.652 mM
CN(C)C(=N)N=C(N)NS(=O)(=O)c1ccccc1F [Compound 7]	0.262 ± 0.035 nmol/min/mg	1.53 ± 0.298 mM	0.443 ± 0.026 nmol/min/mg	2.25 ± 0.19 mM	24.35 ± 2.19 %	43.24 ± 4.09 %	31.88 ± 4.77 %	0.54 ± 0.01 %	79.48 ± 0.82 %	23.59 ± 1.57 %	35.98 ± 4.64 %	39.85 ± 5.67 %	0.57 ± 0.03 %	78.97 ± 0.51 %	5.303 ± 1.334 nmol/min/mg	2.13 ± 0.815 mM	22.43 ± 12.78 nmol/min/mg	6.14 ± 4.6 mM	5149 ± 22 µM	55.1 ± 2.74 µM	transport efficacy (Vmax/Km) in MCF-7 relative to MDA-MB-231 (MDA-MB-231 cells): 10 fold; uptake into MCF-7 cells (MCF-7 cells [2]): 1.592 ± 0.943 nmol/min/mg protein; Vmax MCF-7 (Michaelis Menten curves) (MCF-7 cells [2]; Michaelis-Menten curve): 23.92 ± 7.20 nmol/min/mg; Km (MCF-7 cells [2]; [14]): 10.8 ± 5.13 mM; uptake in MCF-7 cells relative to metformin (MCF-7 cells [2]): approximately 14 fold
